Key:
[1] = target: HLA B*5401 (Homo sapiens, UniProt P01889, A329T/C349S/D138N/D201E/E176V/E187T/E204Q/E69G/I76V/K202T/L119W/R155S/R180L/S121T/S35A/S48A/V127L/V306I/V36M/Y140L); assay type: binding
[2] = target: HLA B*3501 (Homo sapiens, UniProt P01889, A329T/A93T/A95T/C349S/D201E/D98Y/E176V/E187L/E204Q/E69T/I218V/K202T/L119I/Q94N/R155S/R180L/S121R/S35A/S48A/T118I/V127L/V306I/V36M/Y140S/Y91F); assay type: binding
[3] = target: HLA A*6802 (Homo sapiens, UniProt P04439, A269V/D140Y/D185E/E176V/E277Q/E87N/F33Y/G231S/I121R/I166T/I218V/L180W/L300P/L318F/N151K/P208A/P217A/Q86R/R138H/R169H/S129P/T345S/V36M); assay type: binding
[4] = target: H-2 D^b (Mus musculus, UniProt P01899); assay type: binding
H-2 D^b, sequence (P01887 21-119): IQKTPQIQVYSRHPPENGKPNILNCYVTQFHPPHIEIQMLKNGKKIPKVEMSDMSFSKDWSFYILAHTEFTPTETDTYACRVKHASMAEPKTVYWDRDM
H-2 D^b, sequence (P01899 25-362): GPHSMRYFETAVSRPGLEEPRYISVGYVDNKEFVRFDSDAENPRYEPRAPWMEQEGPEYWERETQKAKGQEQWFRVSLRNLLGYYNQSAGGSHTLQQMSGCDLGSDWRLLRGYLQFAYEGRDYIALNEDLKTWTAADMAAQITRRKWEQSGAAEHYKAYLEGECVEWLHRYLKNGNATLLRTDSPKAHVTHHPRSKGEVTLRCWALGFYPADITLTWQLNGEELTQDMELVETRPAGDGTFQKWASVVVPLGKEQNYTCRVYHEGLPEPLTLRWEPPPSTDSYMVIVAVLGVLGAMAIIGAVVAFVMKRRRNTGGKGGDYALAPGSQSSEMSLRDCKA

[5] = target: H-2 K^k (Mus musculus, UniProt P04223); assay type: binding
H-2 K^k, sequence (P01887 21-119): as the sequence (P01887 21-119) above
H-2 K^k, sequence (P04223 22-369): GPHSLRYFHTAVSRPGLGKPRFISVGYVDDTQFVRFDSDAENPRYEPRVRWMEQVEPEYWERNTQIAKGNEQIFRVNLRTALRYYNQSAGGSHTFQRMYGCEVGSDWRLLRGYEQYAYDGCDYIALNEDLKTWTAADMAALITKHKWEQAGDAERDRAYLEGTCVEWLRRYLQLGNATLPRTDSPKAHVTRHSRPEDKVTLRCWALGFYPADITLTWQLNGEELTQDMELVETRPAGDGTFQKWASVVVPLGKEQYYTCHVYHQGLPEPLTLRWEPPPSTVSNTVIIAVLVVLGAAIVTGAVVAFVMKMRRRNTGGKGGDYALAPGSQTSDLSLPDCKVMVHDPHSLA

[6] = target: HLA A*3201 (Homo sapiens, UniProt P04439, A270S/D101S/D185E/E176V/E277Q/F133L/G103R/G107R/G231S/H175R/I121M/I218V/I322F/K168Q/L105A/L300P/L318F/M331R/P208A/P217A/Q94H/R106L/R138Q/S129P/T104I/T323A/T345S/V100E/V321M/V358M); assay: biochemical; assay type: binding
[7] = target: H-2 D^d (Mus musculus, UniProt P01900); assay type: binding
H-2 D^d, sequence (P01900 whole entry, looked up): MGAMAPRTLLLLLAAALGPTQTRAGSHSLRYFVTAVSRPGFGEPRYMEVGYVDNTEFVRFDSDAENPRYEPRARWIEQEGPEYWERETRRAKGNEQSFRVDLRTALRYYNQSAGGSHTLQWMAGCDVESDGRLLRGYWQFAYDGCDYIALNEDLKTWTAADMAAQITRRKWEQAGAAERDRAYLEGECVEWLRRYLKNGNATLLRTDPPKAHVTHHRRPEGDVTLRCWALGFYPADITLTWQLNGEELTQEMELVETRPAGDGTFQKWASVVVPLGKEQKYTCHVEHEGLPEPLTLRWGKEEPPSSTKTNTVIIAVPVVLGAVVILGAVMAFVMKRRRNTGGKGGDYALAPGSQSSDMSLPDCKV

[8] = target: HLA B*5101 (Homo sapiens, UniProt P01889, A329T/A93T/A95T/C349S/D138N/D201E/D98Y/E187L/E204Q/E69T/G107R/I218V/K202T/L105A/L119W/N104I/Q94N/R106L/R155S/R180L/S101N/S121T/S35A/S48A/V306I/V36M/Y195H/Y91F); assay type: binding
[9] = target: HLA B*0702 (Homo sapiens, UniProt P01889); assay type: binding; settings: positional scanning combinatorial 9-mer library; normalized to 1.0 for the best residue at each position
[10] = target: HLA A*0201 (Homo sapiens, UniProt P04439, D140Y/D185E/D98H/E176V/E277Q/G131W/G231S/I119V/I121R/I166T/I218V/L300P/L318F/N151K/N90K/P208A/P217A/Q86G/Q94H/R138H/R169H/T345S); settings: positional scanning combinatorial 9-mer library; normalized to 1.0 for the best residue at each position
[11] = target: HLA B*1501 (Homo sapiens, UniProt P01889, A329T/A93T/A95T/C349S/D201E/D98Y/E187L/E204Q/E69M/E70A/K202T/N87E/Q94N/R155S/R180W/S121R/S35A/S48A/V306I/V36M/Y140S/Y91S); assay: biochemical; assay type: binding
[12] = target: HLA B*2705 (Homo sapiens, UniProt P01889, D138H/D201E/E176V/E204Q/G107R/H137Y/K202T/N104T/N87E/Q56L/Q94K/R106L/R155S/R180L/S101D/S121N/S48T/Y140D/Y33H/Y91C); assay type: binding; settings: positional scanning combinatorial 9-mer library; normalized to 1.0 for the best residue at each position
[13] = target: HLA B*5801 (Homo sapiens, UniProt P01889, A329T/C349S/D201E/D98Y/E176V/E187L/E204Q/E69T/G107R/I218V/I90N/K202T/L105A/L119I/N104I/N87E/Q89R/Q94S/R106L/R155S/R180L/R86G/S101N/S121R/S35A/S48A/T118I/V127L/V306I/V36M/Y140S/Y91M); assay type: binding
[14] = target: HLA B*0801 (Homo sapiens, UniProt P01889, A93T/A95T/D138N/E176V/E187T/K202T/Q94N/R180D/S35A/V36M/Y33D/Y91F); assay: biochemical; assay type: binding
[15] = target: HLA B*5301 (Homo sapiens, UniProt P01889, A329T/A93T/A95T/C349S/D201E/D98Y/E176V/E187L/E204Q/E69T/G107R/I218V/K202T/L105A/L119I/N104I/Q94N/R106L/R155S/R180L/S101N/S121R/S35A/S48A/T118I/V127L/V306I/V36M/Y140S/Y91F); assay type: binding
[16] = target: HLA B*1503 (Homo sapiens, UniProt P01889, A329T/A93T/A95T/C349S/D201E/D98Y/E187L/E204Q/K202T/N87E/Q94N/R155S/R180L/S121R/S35A/V306I/V36M/Y140S/Y91S); assay: biochemical; assay type: binding
[17] = target: HLA A*3001 (Homo sapiens, UniProt P04439, D140H/D185E/E176W/F33S/G80R/H175R/K168Q/R138E/R41S); assay: biochemical; assay type: binding
[18] = target: HLA B*5802 (Homo sapiens, UniProt P01889, A329T/C349S/D201E/D98Y/E176V/E187L/E204Q/E69T/G107R/I218V/I90N/K202T/L105A/N104I/N87E/Q89R/Q94S/R106L/R155S/R180L/R86G/S101N/S121W/S35A/S48A/V127L/V306I/V36M/Y140S/Y91M); assay type: binding

XQXXXXXXX [3064.0034]
Normalized average relative binding affinity (ARB), HLA B*5401 [1]: 0.0034 | Normalized average relative binding affinity (ARB), HLA B*3501 [2]: 0.039 | Normalized average relative binding affinity (ARB), HLA A*6802 [3]: 0.0081 | Normalized average relative binding affinity (ARB), H-2 Db [4]: 1.0 | Normalized average relative binding affinity (ARB), H-2 Kk [5]: 0.053 | Normalized average relative binding affinity (ARB), HLA A*3201 [6]: 0.32 | Normalized average relative binding affinity (ARB), H-2 Dd [7]: 0.015 | Normalized average relative binding affinity (ARB), HLA B*5101 [8]: 0.11 | Normalized average relative binding affinity (ARB), HLA B*0702 [9]: 0.011 | Normalized average relative binding affinity (ARB), HLA A*0201 [10]: 0.14 | Normalized average relative binding affinity (ARB), HLA B*1501 [11]: 1.0 | Normalized average relative binding affinity (ARB), HLA B*2705 [12]: 0.016 | Normalized average relative binding affinity (ARB), HLA B*5801 [13]: 0.024 | Normalized average relative binding affinity (ARB), HLA B*0801 [14]: 0.13 | Normalized average relative binding affinity (ARB), HLA B*5301 [15]: 0.047 | Normalized average relative binding affinity (ARB), HLA B*1503 [16]: 1.0 | Normalized average relative binding affinity (ARB), HLA A*3001 [17]: 0.33 | Normalized average relative binding affinity (ARB), HLA B*5802 [18]: 0.21

XRXXXXXXX [3064.0035]
Normalized average relative binding affinity (ARB), HLA B*5401 [1]: 0.0042 | Normalized average relative binding affinity (ARB), HLA B*3501 [2]: 0.068 | Normalized average relative binding affinity (ARB), HLA A*6802 [3]: 0.0069 | Normalized average relative binding affinity (ARB), H-2 Db [4]: 0.036 | Normalized average relative binding affinity (ARB), H-2 Kk [5]: 0.0071 | Normalized average relative binding affinity (ARB), HLA A*3201 [6]: 0.0090 | Normalized average relative binding affinity (ARB), H-2 Dd [7]: 0.028 | Normalized average relative binding affinity (ARB), HLA B*5101 [8]: 0.022 | Normalized average relative binding affinity (ARB), HLA B*0702 [9]: 0.0078 | Normalized average relative binding affinity (ARB), HLA A*0201 [10]: 0.0016 | Normalized average relative binding affinity (ARB), HLA B*1501 [11]: 0.024 | Normalized average relative binding affinity (ARB), HLA B*2705 [12]: 1.0 | Normalized average relative binding affinity (ARB), HLA B*5801 [13]: 0.017 | Normalized average relative binding affinity (ARB), HLA B*0801 [14]: 0.30 | Normalized average relative binding affinity (ARB), HLA B*5301 [15]: 0.0045 | Normalized average relative binding affinity (ARB), HLA B*1503 [16]: 0.059 | Normalized average relative binding affinity (ARB), HLA A*3001 [17]: 0.048 | Normalized average relative binding affinity (ARB), HLA B*5802 [18]: 0.030

XSXXXXXXX [3064.0036]
Normalized average relative binding affinity (ARB), HLA B*5401 [1]: 0.050 | Normalized average relative binding affinity (ARB), HLA B*3501 [2]: 0.059 | Normalized average relative binding affinity (ARB), HLA A*6802 [3]: 0.27 | Normalized average relative binding affinity (ARB), H-2 Db [4]: 0.80 | Normalized average relative binding affinity (ARB), H-2 Kk [5]: 0.014 | Normalized average relative binding affinity (ARB), HLA A*3201 [6]: 0.21 | Normalized average relative binding affinity (ARB), H-2 Dd [7]: 0.022 | Normalized average relative binding affinity (ARB), HLA B*5101 [8]: 0.10 | Normalized average relative binding affinity (ARB), HLA B*0702 [9]: 0.0043 | Normalized average relative binding affinity (ARB), HLA A*0201 [10]: 0.0092 | Normalized average relative binding affinity (ARB), HLA B*1501 [11]: 0.59 | Normalized average relative binding affinity (ARB), HLA B*2705 [12]: 0.012 | Normalized average relative binding affinity (ARB), HLA B*5801 [13]: 1.0 | Normalized average relative binding affinity (ARB), HLA B*0801 [14]: 0.13 | Normalized average relative binding affinity (ARB), HLA B*5301 [15]: 0.031 | Normalized average relative binding affinity (ARB), HLA B*1503 [16]: 0.13 | Normalized average relative binding affinity (ARB), HLA A*3001 [17]: 0.38 | Normalized average relative binding affinity (ARB), HLA B*5802 [18]: 1.0

XTXXXXXXX [3064.0037]
Normalized average relative binding affinity (ARB), HLA B*5401 [1]: 0.028 | Normalized average relative binding affinity (ARB), HLA B*3501 [2]: 0.042 | Normalized average relative binding affinity (ARB), HLA A*6802 [3]: 0.63 | Normalized average relative binding affinity (ARB), H-2 Db [4]: 0.22 | Normalized average relative binding affinity (ARB), H-2 Kk [5]: 0.0085 | Normalized average relative binding affinity (ARB), HLA A*3201 [6]: 1.0 | Normalized average relative binding affinity (ARB), H-2 Dd [7]: 0.019 | Normalized average relative binding affinity (ARB), HLA B*5101 [8]: 0.042 | Normalized average relative binding affinity (ARB), HLA B*0702 [9]: 0.014 | Normalized average relative binding affinity (ARB), HLA A*0201 [10]: 0.038 | Normalized average relative binding affinity (ARB), HLA B*1501 [11]: 0.29 | Normalized average relative binding affinity (ARB), HLA B*2705 [12]: 0.0033 | Normalized average relative binding affinity (ARB), HLA B*5801 [13]: 0.71 | Normalized average relative binding affinity (ARB), HLA B*0801 [14]: 0.038 | Normalized average relative binding affinity (ARB), HLA B*5301 [15]: 0.022 | Normalized average relative binding affinity (ARB), HLA B*1503 [16]: 0.026 | Normalized average relative binding affinity (ARB), HLA A*3001 [17]: 0.77 | Normalized average relative binding affinity (ARB), HLA B*5802 [18]: 0.79
